From PubChem BioAssay (NCI) come the findings set out here.

Structures are written as SMILES.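 These data come from cells grown in 96-well plates and exposed to compound for 48 hours at five concentrations. GI50 marks 50% less growth. At the TGI there is no net growth.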 Bounds are passed on as bounds.

Some test systems named below: SF-268 CNS; SNB-75 CNS; LOX IMVI melanoma; SF-295 CNS; SNB-19 CNS; ACHN renal; 786-0 renal; COLO 205 colon; HOP-62 NSCLC; EKVX NSCLC.
Holding throughout (assay): DTP human tumour cell line panel, 48 h

Consider `Cc1cc(C(=O)N[C@@H](CCC(=O)O)C(=O)O)sc1CC[C@@H]1CNc2nc(N)[nH]c(=O)c2C1`, for which the 50% growth inhibitory concentration (GI50) with SF-268 CNS was 0.0372 µM; in the assay with SNB-75 CNS it was 0.252 µM; in the assay on LOX IMVI melanoma, 0.0268 µM; in the assay on SF-295 CNS, 0.0496 µM; with SNB-19 CNS it was 0.0853 µM; in the assay with ACHN renal, less than 0.01 µM. The values for the GI50 with 786-0 renal, in the assay on COLO 205 colon and in the assay with HOP-62 NSCLC were less than 0.01 µM, 0.0309 µM and 0.0496 µM, respectively. For the same compound, the total growth inhibition concentration (TGI) in the assay with SF-268 CNS, in the assay on SNB-75 CNS, in the assay with LOX IMVI melanoma, with SF-295 CNS, in the assay on SNB-19 CNS and in the assay with ACHN renal was greater than 100 µM each time. In addition, the TGI with 786-0 renal, with COLO 205 colon and with HOP-62 NSCLC was greater than 100 µM each time.

With `COc1ccccc1-c1ccc2nc(NC(=O)Nc3cc(C(F)(F)F)cc(C(F)(F)F)c3)sc2c1`, the GI50 with SF-268 CNS is 2.86 µM; in the assay on SNB-75 CNS it was 2.25 µM; in the assay with LOX IMVI melanoma it was 1.68 µM; in the assay with SF-295 CNS, 2.64 µM; in the assay with SNB-19 CNS, 2.44 µM; with ACHN renal, 2.14 µM. The results for the GI50 in the assay with 786-0 renal, in the assay on COLO 205 colon and in the assay with HOP-62 NSCLC were 1.44 µM, 1.65 µM and 2.1 µM, respectively. The TGI in the assay with SF-268 CNS came to 12.2 µM; in the assay on SNB-75 CNS it was 11.8 µM; in the assay on LOX IMVI melanoma, 3.13 µM; in the assay with SF-295 CNS, 9.33 µM; in the assay on SNB-19 CNS it was 12.2 µM; with ACHN renal, 7.71 µM. Besides, the TGI with 786-0 renal was 3.25 µM; in the assay on COLO 205 colon, 3.92 µM; in the assay with HOP-62 NSCLC, 4.99 µM.

Consider `CN(C)C(=S)/N=c1\ssc(=S)n1-c1ccccc1`, for which the TGI in the assay with SF-268 CNS is 32.8 µM; with SNB-75 CNS, 34.1 µM; in the assay with EKVX NSCLC it was 43.6 µM; in the assay with SF-295 CNS, 46.6 µM; in the assay with SNB-19 CNS, greater than 100 µM; in the assay with ACHN renal it was 32.1 µM. The TGI in the assay with 786-0 renal was 30.5 µM; in the assay on HOP-62 NSCLC, 74.2 µM.

Regarding `O=C1c2ccccc2C(=O)c2c(NC(=O)C(Cl)CCl)cccc21` (stereo unspecified), the total growth inhibition concentration (TGI) in the assay on SF-268 CNS is 25 µM; in the assay on SNB-75 CNS, 32.4 µM; in the assay on EKVX NSCLC it was 42.7 µM; in the assay with SF-295 CNS, greater than 62.1 µM; in the assay on SNB-19 CNS it was 32.9 µM; with ACHN renal, 29 µM. The TGI with 786-0 renal came to 11.9 µM; with COLO 205 colon it was 26.9 µM; with HOP-62 NSCLC it was 23.6 µM.

Regarding `COc1cc[c]([Sb]([Br])([CH]=C(C)C)([CH]=C(C)C)[CH]=C(C)C)cc1`, the GI50 was 3.52 µM with SF-268 CNS; 15.7 µM in the assay on LOX IMVI melanoma; 2.28 µM with EKVX NSCLC; 18.4 µM with SF-295 CNS; 5.4 µM in the assay with SNB-19 CNS; 21.7 µM in the assay on ACHN renal. Further, the GI50 with 786-0 renal is 13.6 µM; with COLO 205 colon it was 1.95 µM; in the assay on HOP-62 NSCLC, 29.5 µM. For the same compound, the TGI is 35.8 µM with SF-268 CNS; greater than 100 µM with LOX IMVI melanoma; 39.6 µM in the assay with EKVX NSCLC; 87.2 µM with SF-295 CNS; 78.9 µM in the assay with SNB-19 CNS; greater than 100 µM in the assay with ACHN renal. Also, the total growth inhibition concentration (TGI) with 786-0 renal is greater than 100 µM; in the assay with COLO 205 colon it was 7.99 µM; in the assay on HOP-62 NSCLC, greater than 100 µM.

As for `COc1cc(OC)cc(-c2ccc(-c3ccc(C(=N)N)s3)s2)c1`, the GI50 in the assay with SF-268 CNS is 1.67 µM; with SNB-75 CNS it was 1.22 µM; in the assay with LOX IMVI melanoma, 0.221 µM; with SF-295 CNS, 1.65 µM; with SNB-19 CNS, 1.72 µM; with ACHN renal, 1.45 µM. The values for the GI50 with 786-0 renal, with COLO 205 colon and with HOP-62 NSCLC were 1.23 µM, 0.209 µM and 1.81 µM, respectively. The TGI with SF-268 CNS stood at 3.42 µM; in the assay on SNB-75 CNS it was 2.5 µM; in the assay on LOX IMVI melanoma, 0.495 µM; with SF-295 CNS, 3.22 µM; in the assay with SNB-19 CNS, 3.69 µM; in the assay with ACHN renal it was 3.25 µM. The results for the TGI in the assay on 786-0 renal, with COLO 205 colon and in the assay with HOP-62 NSCLC were 3.06 µM, 0.407 µM and 3.47 µM, respectively.

For the compound `Cc1cc(S(N)(=O)=O)c(S/C(=N\Nc2ccc([N+](=O)[O-])cc2)c2ccc(O)cc2)cc1Cl`, the GI50 is 2.22 µM in the assay on SF-268 CNS; 6.82 µM in the assay on EKVX NSCLC; 2.07 µM in the assay with SF-295 CNS; 4.46 µM in the assay on SNB-19 CNS; 3.09 µM in the assay with ACHN renal; 3.8 µM in the assay on 786-0 renal. Further, the values for the GI50 in the assay with COLO 205 colon and in the assay on HOP-62 NSCLC were 4.21 µM and 5.02 µM, respectively. In addition, the concentration for total growth inhibition (TGI) amounted to 8.19 µM in the assay with SF-268 CNS; 22.6 µM in the assay with EKVX NSCLC; 3.92 µM with SF-295 CNS; 16.1 µM with SNB-19 CNS; 12.9 µM in the assay with ACHN renal; 13.5 µM in the assay with 786-0 renal. Moreover, the TGI was 17.6 µM with COLO 205 colon and 16.8 µM with HOP-62 NSCLC.

As to `Clc1ccccc1C1N2CCCCC2[C@@H]2c3[nH]c4ccccc4c3CCN12` (stereo partly specified), the TGI was 38.4 µM with SF-268 CNS; 66.7 µM in the assay on SNB-75 CNS; greater than 100 µM with EKVX NSCLC; 58.9 µM with SF-295 CNS; 82.7 µM in the assay with SNB-19 CNS; 45.8 µM in the assay on ACHN renal. The concentration for total growth inhibition (TGI) in the assay on 786-0 renal came out at 42.2 µM; in the assay on COLO 205 colon it was 37.4 µM; in the assay with HOP-62 NSCLC, 59.3 µM.

Regarding `Clc1ccccc1-c1nc(-c2ccncc2)no1`, the total growth inhibition concentration (TGI) in the assay with SF-268 CNS, in the assay with SNB-75 CNS, in the assay on EKVX NSCLC, with SF-295 CNS, with SNB-19 CNS and with ACHN renal was greater than 100 µM each time. The TGI in the assay on 786-0 renal, in the assay on COLO 205 colon and in the assay with HOP-62 NSCLC was greater than 100 µM each time.

Turning to `O=S(=O)(CC#CCCCOCC#Cc1ccccc1C#CCS(=O)(=O)c1ccccc1)c1ccccc1`, the GI50 in the assay with SF-268 CNS is 19.6 µM; with LOX IMVI melanoma, 8.1 µM; in the assay on EKVX NSCLC it was greater than 100 µM; in the assay with SF-295 CNS it was 29.8 µM; in the assay with SNB-19 CNS it was greater than 100 µM; with ACHN renal, 24.3 µM. Besides, the figures for the GI50 with 786-0 renal, in the assay on COLO 205 colon and in the assay with HOP-62 NSCLC were 18.9 µM, 72.3 µM and 31.7 µM, respectively. Besides, the TGI in the assay with SF-268 CNS is 50.1 µM; with LOX IMVI melanoma, 24.8 µM; in the assay on EKVX NSCLC it was greater than 100 µM; in the assay with SF-295 CNS, 91.3 µM; with SNB-19 CNS it was greater than 100 µM; in the assay on ACHN renal it was 55 µM. Moreover, the values for the concentration for total growth inhibition (TGI) in the assay with 786-0 renal, with COLO 205 colon and in the assay with HOP-62 NSCLC were 35.3 µM, greater than 100 µM and greater than 100 µM, respectively.
